# Source: patent publication US9481654B2, “Compositions and methods for inhibition of the JAK pathway” (Rigel Pharmaceuticals, Inc., priority 2006, dated 2016)
# Where a name gives a salt, the structure may show the parent alone.
# Test system: IL-4 stimulated CD23 upregulation in human Ramos B cells (JAK-1/JAK-3, Stat-6)
# Assay: Assay for Ramos B-Cell Line Stimulated with IL-4 (CD23 upregulation, FACS)
# Assay type: cell-based
# Conditions: Table III Example 3
# Text: One means of assaying for such inhibition is detection of the effect of the 2,4-pyrimidinediamine compounds on the upregulation of downstream gene products. In the Ramos/IL4 assay, B-cells are stimulated with the cytokine Interleukin-4 (IL-4) leading to the activation of the JAK/Stat pathway through phosphorylation of the JAK family kinases, JAK1 and JAK3, which in turn phosphorylate and activate the transcription factor Stat-6. […] To study the effect of inhibitors (e.g., the 2,4-substituted pyrimindinediamine compounds described herein) on the JAK1 and JAK3 kinases, human Ramos B cells are stimulated with human IL-4. 20 to 24 hours post stimulation, cells are stained for upregulation of CD23 and analyzed using flow cytometry (FACS).
# B-cells stimulated with cytokine Interleukin-4 (IL-4) activate the JAK/Stat pathway through phosphorylation of the JAK family kinases, JAK-1 and JAK-3, which in turn phosphorylate and activate the transcription factor Stat-6. […] To study the effect of inhibitors on the JAK family kinases, human Ramos B cells are stimulated with human IL-4.
# Cells were maintained at a density of 3.5×10^5. The day before the experiment, Ramos B-cells were diluted to 3.5×10^5 cells/mL to ensure that they were in a logarithmic growth phase.
# Cells were spun down and suspended in RPMI with 5% serum. 5×10^4 cells were used per point in a 96-well tissue culture plate. Cells were pre-incubated with compound or DMSO (Sigma-Aldrich, St. Louis, Mo., Cat No. D2650) vehicle control for 1 hour in a 37° C. incubator. Cells were then stimulated with IL-4 (Peprotech Inc., Rocky Hill, N.J., Cat No. 200-04) for a final concentration of 50 units/mL for 20-24 hours. […] Detection was performed using a BD LSR I System Flow Cytometer, purchased from Becton Dickinson Biosciences of San Jose, Calif.
row,Compound,IC50
1,"CCC(=O)NS(=O)(=O)c1cccc(Nc2ncc(F)c(Nc3ccc(CNS(=O)(=O)C4CC4)cc3)n2)c1 [Compound I-57, N4-(4-cyclopropylsulfonylaminomethyl)phenyl-5-fluoro-N2-(3-propionylaminosulfonyl)phenyl-2,4-pyrimidinediamine]",12.3 µM
2,"CCC(=O)NS(=O)(=O)c1cccc(Nc2ncc(F)c(Nc3ccc(CN(C(=O)CC)S(=O)(=O)C4CC4)cc3)n2)c1 [Compound I-58, N4-[4-(N-cyclopropylsulfonyl-N-propionyl)aminomethyl]phenyl-5-fluoro-N2-(3-propionylaminosulfonyl)phenyl-2,4-pyrimidinediamine]",11.1 µM
3,"CCC(=O)NS(=O)(=O)c1cc(Nc2ncc(F)c(Nc3ccc(CNS(=O)(=O)C4CC4)cc3)n2)ccc1C [Compound I-59, N4-(4-cyclopropylsulfonylaminomethyl)phenyl-5-fluoro-N2-(4-methyl-3-propionylaminosulfonyl)phenyl-2,4-pyrimidinediamine]",6.5 µM
4,"CCC(=O)NS(=O)(=O)c1cc(Nc2ncc(F)c(Nc3ccc(CN(C(=O)CC)S(=O)(=O)C4CC4)cc3)n2)ccc1C [Compound I-60, N4-[4-(N-cyclopropylsulfonyl-N-propionyl)aminomethyl]phenyl-5-fluoro-N2-(4-methyl-3-propionylaminosulfonyl)phenyl-2,4-pyrimidinediamine]",7.08 µM
5,"CCC(=O)NS(=O)(=O)c1ccc(Nc2ncc(C)c(Nc3ccc(CN(C(=O)CC)S(=O)(=O)C4CC4)cc3)n2)cc1 [Compound I-77, N4-[4-(N-cyclopropylsulfonyl-N-propionyl)aminomethyl]phenyl-5-methyl-N2-(4-propionylaminosulfonyl)phenyl-2,4-pyrimidinediamine]",1.23 µM
6,"CCC(=O)NS(=O)(=O)c1ccc(Nc2ncc(C)c(Nc3ccc(CN(C(=O)CC)S(=O)(=O)CC)cc3)n2)cc1 [Compound I-91, N4-[4-(N-ethylsulfonyl-N-propionyl)aminomethyl]phenyl-5-methyl-N2-(4-propionylaminosulfonyl)phenyl-2,4-pyrimidinediamine]",1.29 µM
7,"CCC(=O)NS(=O)(=O)c1cccc(Nc2ncc(C)c(Nc3cccc(CN(C(=O)CC)S(=O)(=O)C4CC4)c3)n2)c1 [Compound I-93, N4-[3-(N-cyclopropylsulfonyl-N-propionyl)aminomethyl]phenyl-5-methyl-N2-(3-propionylaminosulfonyl)phenyl-2,4-pyrimidinediamine]",2.81 µM
8,"CCOC(=O)N(CC)S(=O)(=O)c1cccc(Nc2ncc(C)c(Nc3cccc(CNS(=O)(=O)C4CC4)c3)n2)c1 [Compound I-130, N4-(3-cyclopropylsulfonylaminomethyl)phenyl-N2-[3-(N-ethoxycarbonyl-N-ethyl)aminosulfonyl]phenyl-5-methyl-2,4-pyrimidinediamine]",0.544 µM
9,"Cc1cnc(Nc2cccc(S(=O)(=O)NC(=O)CN)c2)nc1Nc1cccc(CNS(=O)(=O)C2CC2)c1 [Compound I-131, N2-[3-N-(2-amino-1-oxoethyl)aminosulfonyl]phenyl-N4-(3-cyclopropylsulfonylaminomethyl)phenyl-5-methyl-2,4-pyrimidinediamine]",0.557 µM
10,"Cc1cnc(Nc2cccc(S(=O)(=O)NC(=O)[C@@H](N)Cc3ccccc3)c2)nc1Nc1cccc(CNS(=O)(=O)C2CC2)c1 [Compound I-132, N2-[3-N-(L-Phe)aminosulfonyl]phenyl-N4-(3-cyclopropylsulfonylaminomethyl)phenyl-5-methyl-2,4-pyrimidinediamine hydrogen chloride salt]",0.594 µM
11,"Cc1cnc(Nc2cccc(S(=O)(=O)NC(=O)[C@@H](N)Cc3ccccc3)c2)nc1Nc1cccc(CNS(=O)(=O)C2CC2)c1 [Compound I-134, N2-[3-N-(L-Phe)aminosulfonyl]phenyl-N4-(3-cyclopropylsulfonylaminomethyl)phenyl-5-methyl-2,4-pyrimidinediamine]",0.751 µM
12,"CCC(=O)NS(=O)(=O)c1cccc(Nc2ncc(C)c(Nc3cccc(CNS(=O)(=O)C4CC4)c3)n2)c1 [Compound I-136, N4-(3-cyclopropylsulfonylaminomethyl)phenyl-5-methyl-N2-(3-propionylaminosulfonyl)phenyl-2,4-pyrimidinediamine]",1.63 µM
13,"Cc1cnc(Nc2cccc(S(=O)(=O)N[C@H](C(=O)O)C(C)C)c2)nc1Nc1cccc(CNS(=O)(=O)C2CC2)c1 [Compound I-138, N2-[3-N-(L-Val)aminosulfonyl]phenyl-N4-(3-cyclopropylsulfonylaminomethyl)phenyl-5-methyl-2,4-pyrimidinediamine]",2.38 µM
14,"Cc1cnc(Nc2cccc(S(=O)(=O)NC(=O)[C@H](Cc3ccccc3)NC(=O)OCc3ccccc3)c2)nc1Nc1cccc(CNS(=O)(=O)C2CC2)c1 [Compound I-139, N2-[3-N-(Cbz-L-Phe)aminosulfonyl]phenyl-N4-(3-cyclopropylsulfonylaminomethyl)phenyl-5-methyl-2,4-pyrimidinediamine]",3.32 µM
15,"Cc1cnc(Nc2cccc(S(=O)(=O)NC(=O)CNC(=O)OC(C)(C)C)c2)nc1Nc1cccc(CNS(=O)(=O)C2CC2)c1 [Compound I-140, N2-{3-N-[2-(t-butoxycarbonylamino)-1-oxoethyl]aminosulfonyl}phenyl-N4-(3-cyclopropylsulfonylaminomethyl)phenyl-5-methyl-2,4-pyrimidinediamine]",3.94 µM

# Same assay, conditions: Table III Example 3, sodium salt
row,Compound,IC50
1,"CCC(=O)NS(=O)(=O)c1cccc(Nc2ncc(F)c(Nc3ccc(CNS(=O)(=O)C4CC4)cc3)n2)c1 [Compound I-61, N4-(4-cyclopropylsulfonylaminomethyl)phenyl-5-fluoro-N2-(3-propionylaminosulfonyl)phenyl-2,4-pyrimidinediamine sodium salt]",18.9 µM
2,"CCC(=O)NS(=O)(=O)c1cccc(Nc2ncc(F)c(Nc3ccc(CN(C(=O)CC)S(=O)(=O)C4CC4)cc3)n2)c1 [Compound I-62, N4-[4-(N-cyclopropylsulfonyl-N-propionyl)aminomethyl]phenyl-5-fluoro-N2-(3-propionylaminosulfonyl)phenyl-2,4-pyrimidinediamine sodium salt]",10.7 µM
3,"CCC(=O)NS(=O)(=O)c1cc(Nc2ncc(F)c(Nc3ccc(CNS(=O)(=O)C4CC4)cc3)n2)ccc1C [Compound I-63, N4-(4-cyclopropylsulfonylaminomethyl)phenyl-5-fluoro-N2-(4-methyl-3-propionylaminosulfonyl)phenyl-2,4-pyrimidinediamine sodium salt]",9.45 µM
4,"CCC(=O)NS(=O)(=O)c1cc(Nc2ncc(F)c(Nc3ccc(CN(C(=O)CC)S(=O)(=O)C4CC4)cc3)n2)ccc1C [Compound I-64, N4-[4-(N-cyclopropylsulfonyl-N-propionyl)aminomethyl]phenyl-5-fluoro-N2-(4-methyl-3-propionylaminosulfonyl)phenyl-2,4-pyrimidinediamine sodium salt]",4.27 µM
5,"CCC(=O)NS(=O)(=O)c1ccc(Nc2ncc(C)c(Nc3ccc(CNS(=O)(=O)C4CC4)cc3)n2)cc1 [Compound I-88, N4-(4-cyclopropylsulfonylaminomethyl)phenyl-5-methyl-N2-(4-propionylaminosulfonyl)phenyl-2,4-pyrimidinediamine sodium salt]",0.0599 µM
6,"CCC(=O)NS(=O)(=O)c1ccc(Nc2ncc(C)c(Nc3ccc(CN(C(=O)CC)S(=O)(=O)CC)cc3)n2)cc1 [Compound I-92, N4-[4-(N-ethylsulfonyl-N-propionyl)aminomethyl]phenyl-5-methyl-N2-(4-propionylaminosulfonyl)phenyl-2,4-pyrimidinediamine sodium salt]",0.96 µM
7,"CCC(=O)NS(=O)(=O)c1cccc(Nc2ncc(C)c(Nc3cccc(CN(C(=O)CC)S(=O)(=O)C4CC4)c3)n2)c1 [Compound I-94, N4-[3-(N-cyclopropylsulfonyl-N-propionyl)aminomethyl]phenyl-5-methyl-N2-(3-propionylaminosulfonyl)phenyl-2,4-pyrimidinediamine sodium salt]",2.5 µM
8,"Cc1cnc(Nc2cccc(S(=O)(=O)NC(=O)[C@H](Cc3ccccc3)NC(=O)OCc3ccccc3)c2)nc1Nc1cccc(CNS(=O)(=O)C2CC2)c1 [Compound I-135, N2-[3-N-(Cbz-L-Phe)aminosulfonyl]phenyl-N4-(3-cyclopropylsulfonylaminomethyl)phenyl-5-methyl-2,4-pyrimidinediamine sodium salt]",1 µM
9,"CCC(=O)NS(=O)(=O)c1cccc(Nc2ncc(C)c(Nc3cccc(CNS(=O)(=O)C4CC4)c3)n2)c1 [Compound I-137, N4-(3-cyclopropylsulfonylaminomethyl)phenyl-5-methyl-N2-(3-propionylaminosulfonyl)phenyl-2,4-pyrimidinediamine sodium salt]",1.91 µM
10,"Cc1cnc(Nc2cccc(S(=O)(=O)NC(=O)CNC(=O)OC(C)(C)C)c2)nc1Nc1cccc(CNS(=O)(=O)C2CC2)c1 [Compound I-141, N2-{3-N-[2-(t-butoxycarbonylamino)-1-oxoethyl]aminosulfonyl}phenyl-N4-(3-cyclopropylsulfonylaminomethyl)phenyl-5-methyl-2,4-pyrimidinediamine sodium salt]",4.71 µM
